Assay: recombinant UMI read abundance after kanamycin selection (control-corrected) (log10(CPM+1)); higher = more efficient recombination; extreme values may be limits of the assay; sequences stand for … in AGTGCAGAGAAAATCGGCCAGTTTTCTCTGCCTGCAGTCCGCATGCCGTGGGACCCCTTGGGTTCTAACCTGTTGCCTAGATTTATGCAGCGGACTGCCTTTCTCCCAAAGTGATAAACCGG…AGGTTGGTTTCACT; site = the 11-nt donor
Procedure, shortened: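 In Escherichia coli, a pool of donor and donor-binding-loop pairs, each with a 12-nt UMI, was tested for the IS621 bridge recombinase. Plating was on IPTG (0.07 mM) plus kanamycin, or without selection, in two replicates. Recombinant UMIs were amplified by PCR across the donor–target junction and sequenced, and counts were reported as log10(CPM+1) after averaging and control-derived scaling.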
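Also: IS621 bridge recombinase in Escherichia coli cells against a fixed T5 target plasmid.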

“CCCGGTCCATGGACCGGTTTTCCCGGTAATCCGTATTTGCA (site CCCGCTCCTTG)” and “CCCGGTCCATGGACCGGTTTTCCCGGTAATCCGTATTTGCA (site CCCGGACCTTG)” are the same in “recombinant UMI read abundance (log10)” value: 0 for the first, 0 for the second.

“CCCGGTCCATGGACCGGTTTTCCCGGTAATCCGTATTTGCA (site CCCGGCCCTTG)” and “CCCGGTCCATGGACCGGTTTTCCCGGTAATCCGTATTTGCA (site CCCGGGCCTTG)” are within 0.2 log units of each other in “recombinant UMI read abundance (log10)” value: 0 for the first, 0.00671 for the second.

“CCCGGTCCATGGACCGGTTTTCCCGGTAATCCGTATTTGCA (site CCCGGTACTTG)” and “CCCGGTCCATGGACCGGTTTTCCCGGTAATCCGTATTTGCA (site CCCGGTCCTAG)” are the same in “recombinant UMI read abundance (log10)” value: 0 for the first, 0 for the second.

“CCCGGTCCATGGACCGGTTTTCCCGGTAATCCGTATTTGCA (site CCCGGTCCTCG)” and “CCCGGTCCATGGACCGGTTTTCCCGGTAATCCGTATTTGCA (site CCCGGTCCTGG)” are the same in “recombinant UMI read abundance (log10)” value: 0 for the first, 0 for the second.

“CCCGGTCCATGGACCGGTTTTCCCGGTAATCCGTATTTGCA (site CCCGGTCCTTA)” and “CCCGGTCCATGGACCGGTTTTCCCGGTAATCCGTATTTGCA (site CCCGGTCCTTC)” are within 0.2 log units of each other in “recombinant UMI read abundance (log10)” value: 0.0178 for the first, 0 for the second.

“CCCGGTCCATGGACCGGTTTTCCCGGTAATCCGTATTTGCA (site CCCGGTCCTTG)” and “CCCGGTCCATGGACCGGTTTTCCCGGTAATCCGTATTTGCA (site CCCGGTCCTTT)” are within 0.2 log units of each other in “recombinant UMI read abundance (log10)” value: 0 for the first, 0.0121 for the second.

“CCCGGTCCATGGACCGGTTTTCCCGGTAATCCGTATTTGCA (site CCCGGTGCTTG)” and “CCCGGTCCATGGACCGGTTTTCCCGGTAATCCGTATTTGCA (site CCCGGTTCTTG)” are the same in “recombinant UMI read abundance (log10)” value: 0 for the first, 0 for the second.

“CCCGGTCCATGGACCGGTTTTCCCGGTAATCCGTATTTGCA (site CCCGTTCCTTG)” and “CCCGGTCCATGGACCGGTTTTCCCGGTAATCCGTATTTGCA (site CCCTGTCCTTG)” are within 0.2 log units of each other in “recombinant UMI read abundance (log10)” value: 0 for the first, 0.00802 for the second.

“CCCGGTCCATGGACCGGTTTTCCCGGTAATCCGTATTTGCA (site CCGGGTCCTTG)” and “CCCGGTCCATGGACCGGTTTTCCCGGTAATCCGTATTTGCA (site CCTGGTCCTTG)” are within 0.2 log units of each other in “recombinant UMI read abundance (log10)” value: 0.00973 for the first, 0.00597 for the second.

“CCCGGTCCATGGACCGGTTTTCCCGGTAATCCGTATTTGCA (site CGCGGTCCTTG)” and “CCCGGTCCATGGACCGGTTTTCCCGGTAATCCGTATTTGCA (site CTCGGTCCTTG)” are within 0.2 log units of each other in “recombinant UMI read abundance (log10)” value: 0 for the first, 0.00601 for the second.

“CCCGGTCCATGGACCGGTTTTCCCGGTAATCCGTATTTGCA (site GCCGGTCCTTG)” and “CCCGGTCCATGGACCGGTTTTCCCGGTAATCCGTATTTGCA (site TCCGGTCCTTG)” are within 0.2 log units of each other in “recombinant UMI read abundance (log10)” value: 0 for the first, 0.00534 for the second.

“CCCGGTCCATGGACCGGTTTTCCCGGTAATCCGTATTTGCT (site CCCGGTCCTAG)” and “CCCGGTCCATGGACCGGTTTTCCCGGTAATCCGTATTTGCT (site CCCGGTCCTCG)” are within 0.2 log units of each other in “recombinant UMI read abundance (log10)” value: 0 for the first, 0.0027 for the second.

“CCCGGTCCATGGACCGGTTTTCCCGGTAATCCGTATTTGCT (site CCCGGTCCTGG)” and “CCCGGTCCATGGACCGGTTTTCCCGGTAATCCGTATTTGCT (site CCCGGTCCTTG)” are the same in “recombinant UMI read abundance (log10)” value: 0 for the first, 0 for the second.

“CCCGGTCCATGGACCGGTTTTCCCGGTAATCCGTATTTGTA (site CCCGGTCCTTA)” and “CCCGGTCCATGGACCGGTTTTCCCGGTAATCCGTATTTGTA (site CCCGGTCCTTC)” are within 0.2 log units of each other in “recombinant UMI read abundance (log10)” value: 0 for the first, 0.0127 for the second.

“CCCGGTCCATGGACCGGTTTTCCCGGTAATCCGTATTTGTA (site CCCGGTCCTTG)” and “CCCGGTCCATGGACCGGTTTTCCCGGTAATCCGTATTTGTA (site CCCGGTCCTTT)” are within 0.2 log units of each other in “recombinant UMI read abundance (log10)” value: 0 for the first, 0.041 for the second.

Going from “CCCGTATCATGGACCGGTTTTCCCGGTAATCCGTATTTGGT (site CCCGTATCTAC)” to “CCCGTCGCATGGACCGGTTTTCCCGGTAATCCGTATTTGCT (site CCCGTCGCTAG)”, the “recombinant UMI read abundance (log10)” value rises from 0.563 to 0.795.

“CCCTACACATGGACCGGTTTTCCCGGTAATCCGTATTTGTA (site CCCAACACTTA)” and “CCCTACACATGGACCGGTTTTCCCGGTAATCCGTATTTGTA (site CCCCACACTTA)” are within 0.2 log units of each other in “recombinant UMI read abundance (log10)” value: 0.0262 for the first, 0.00329 for the second.

“CCCTACACATGGACCGGTTTTCCCGGTAATCCGTATTTGTA (site CCCGACACTTA)” and “CCCTACACATGGACCGGTTTTCCCGGTAATCCGTATTTGTA (site CCCTACACTTA)” are within 0.2 log units of each other in “recombinant UMI read abundance (log10)” value: 0.0499 for the first, 0.0328 for the second.

Compared with “CCCTAGCCATGGACCGGTTTTCCCGGTAATCCGTATTTGTC (site CCCTAGCCTGA)”, “CCCTAGCCATGGACCGGTTTTCCCGGTAATCCGTATTTGTC (site CCCTAGCCTGC)” is lower in “recombinant UMI read abundance (log10)” value: 0.265 for the first, 0 for the second.

“CCCTAGCCATGGACCGGTTTTCCCGGTAATCCGTATTTGTC (site CCCTAGCCTGG)” and “CCCTAGCCATGGACCGGTTTTCCCGGTAATCCGTATTTGTC (site CCCTAGCCTGT)” are the same in “recombinant UMI read abundance (log10)” value: 0 for the first, 0 for the second.

Going from “CCCTATTCATGGACCGGTTTTCCCGGTAATCCGTATTTGGA (site CCCTATTCTTC)” to “CCCTTATCATGGACCGGTTTTCCCGGTAATCCGTATTTGCA (site CCCTTATCTTG)”, the “recombinant UMI read abundance (log10)” value rises from 0.0708 to 2.15.

“CCCTTATCATGGACCGGTTTTCCCGGTAATCCGTATTTGTC (site CCCATATCTGA)” and “CCCTTATCATGGACCGGTTTTCCCGGTAATCCGTATTTGTC (site CCCCTATCTGA)” are the same in “recombinant UMI read abundance (log10)” value: 0 for the first, 0 for the second.

First: CCCTTATCATGGACCGGTTTTCCCGGTAATCCGTATTTGTC (site CCCGTATCTGA)
Second: CCCTTATCATGGACCGGTTTTCCCGGTAATCCGTATTTGTC (site CCCTTATCTGA)
The “recombinant UMI read abundance (log10)” value of the first is lower: 0 for the first, 0.909 for the second.

“CCCTTCTCATGGACCGGTTTTCCCGGTAATCCGTATTTGAG (site CCCTTCTCTCA)” and “CCCTTCTCATGGACCGGTTTTCCCGGTAATCCGTATTTGAG (site CCCTTCTCTCC)” are within 0.2 log units of each other in “recombinant UMI read abundance (log10)” value: 0.00351 for the first, 0.00506 for the second.

“CCCTTCTCATGGACCGGTTTTCCCGGTAATCCGTATTTGAG (site CCCTTCTCTCG)” and “CCCTTCTCATGGACCGGTTTTCCCGGTAATCCGTATTTGAG (site CCCTTCTCTCT)” are within 0.2 log units of each other in “recombinant UMI read abundance (log10)” value: 0.01 for the first, 0.00554 for the second.

“CCCTTCTCATGGACCGGTTTTCCCGGTAATCCGTATTTGCG (site CCCTTCTCTCA)” and “CCCTTCTCATGGACCGGTTTTCCCGGTAATCCGTATTTGCG (site CCCTTCTCTCC)” are within 0.2 log units of each other in “recombinant UMI read abundance (log10)” value: 0.02 for the first, 0.195 for the second.

Compared with “CCCTTCTCATGGACCGGTTTTCCCGGTAATCCGTATTTGCG (site CCCTTCTCTCG)”, “CCCTTCTCATGGACCGGTTTTCCCGGTAATCCGTATTTGCG (site CCCTTCTCTCT)” is lower in “recombinant UMI read abundance (log10)” value: 1.08 for the first, 0.061 for the second.

“CCCTTCTCATGGACCGGTTTTCCCGGTAATCCGTATTTGGA (site CCCTTCTCTAC)” and “CCCTTCTCATGGACCGGTTTTCCCGGTAATCCGTATTTGGA (site CCCTTCTCTCC)” are within 0.2 log units of each other in “recombinant UMI read abundance (log10)” value: 0 for the first, 0.0081 for the second.

Compared with “CCCTTCTCATGGACCGGTTTTCCCGGTAATCCGTATTTGGA (site CCCTTCTCTGC)”, “CCCTTCTCATGGACCGGTTTTCCCGGTAATCCGTATTTGGA (site CCCTTCTCTTC)” is higher in “recombinant UMI read abundance (log10)” value: 0 for the first, 0.21 for the second.

“CCCTTGCCATGGACCGGTTTTCCCGGTAATCCGTATTTGCC (site CCCTAGCCTGG)” and “CCCTTGCCATGGACCGGTTTTCCCGGTAATCCGTATTTGCC (site CCCTCGCCTGG)” are the same in “recombinant UMI read abundance (log10)” value: 0 for the first, 0 for the second.

“CCCTTGCCATGGACCGGTTTTCCCGGTAATCCGTATTTGCC (site CCCTGGCCTGG)” and “CCCTTGCCATGGACCGGTTTTCCCGGTAATCCGTATTTGCC (site CCCTTGCCTGG)” are the same in “recombinant UMI read abundance (log10)” value: 0 for the first, 0 for the second.

First: CCCTTGTCATGGACCGGTTTTCCCGGTAATCCGTATTTGGG (site CCCTTATCTCC)
Second: CCCTTGTCATGGACCGGTTTTCCCGGTAATCCGTATTTGGG (site CCCTTCTCTCC)
The “recombinant UMI read abundance (log10)” value of the first is higher: 0.393 for the first, 0.00922 for the second.

First: CCCTTGTCATGGACCGGTTTTCCCGGTAATCCGTATTTGGG (site CCCTTGTCTCC)
Second: CCCTTGTCATGGACCGGTTTTCCCGGTAATCCGTATTTGGG (site CCCTTTTCTCC)
The “recombinant UMI read abundance (log10)” value of the first is higher: 0.297 for the first, 0.0116 for the second.

Compared with “CCCTTTACATGGACCGGTTTTCCCGGTAATCCGTATTTGCT (site CCATTTACTAG)”, “CCCTTTACATGGACCGGTTTTCCCGGTAATCCGTATTTGCT (site CCCTTTACTAG)” is higher in “recombinant UMI read abundance (log10)” value: 0 for the first, 1.76 for the second.
